In patent publication US10640497B2, “Microbiocidal oxadiazole derivatives” (SYNGENTA PARTICIPATIONS AG, priority 2015, dated 2020):

How the values were obtained:
Phakopsora pachyrhizi = experiment: Fungicidal activity against Phakopsora pachyrhizi, soybean, leaf disc preventative (Asian soybean rust); format: in vivo; settings: foliar, 288 h, 12-14 days after application, compared to untreated control
Method: Leaf disks or leaf segments of various plant species are cut from plants grown in a greenhouse. The cut leaf disks or segments are placed in multiwell plates (24-well format) onto water agar. The leaf disks are sprayed with a test solution before (preventative) or after (curative) inoculation. Compounds to be tested are prepared as DMSO solutions (max. 10 mg/ml) which are diluted to the appropriate concentration with 0.025% Tween20 just before spraying. The inoculated leaf disks or segments are incubated under defined conditions (temperature, relative humidity, light, etc.) according to the respective test system. A single evaluation of disease level is carried out 3 to 14 days after inoculation, depending on the pathosystem. Percent disease control relative to the untreated check leaf disks or segments is then calculated. Soybean leaf disks are placed on water agar in multiwell plates (24-well format) and sprayed with the formulated test compound diluted in water. One day after application leaf discs are inoculated by spraying a spore suspension on the lower leaf surface. After an incubation period in a climate cabinet of 24-36 hours in darkness at 20° C. and 75% rh leaf disc are kept at 20° C. with 12 h light/day and 75% rh. The activity of a compound is assessed as percent disease control compared to untreated when an appropriate level of disease damage appears in untreated check leaf disks (12-14 days after application).

[1] = system: Puccinia recondita f. sp. tritici; experiment: Fungicidal activity against Puccinia recondita f. sp. tritici, wheat, leaf disc preventative (brown rust); format: in vivo; settings: foliar, wheat leaf segments, preventative (inoculated 1 day after application), 7-9 days after application, compared to untreated control
Method: (§1) Leaf disks or leaf segments of various plant species are cut from plants grown in a greenhouse. The cut leaf disks or segments are placed in multiwell plates (24-well format) onto water agar. The leaf disks are sprayed with a test solution before (preventative) or after (curative) inoculation. Compounds to be tested are prepared as DMSO solutions (max. 10 mg/ml) which are diluted to the appropriate concentration with 0.025% Tween20 just before spraying. The inoculated leaf disks or segments are incubated under defined conditions (temperature, relative humidity, light, etc.) according to the respective test system. A single evaluation of disease level is carried out 3 to 14 days after inoculation, depending on the pathosystem. Percent disease control relative to the untreated check leaf disks or segments is then calculated. Wheat leaf segments cv. Kanzler are placed on agar in multiwell plates (24-well format) and sprayed with the formulated test compound diluted in water. The leaf segments are inoculated with a spore suspension of the fungus 1 day after application. The inoculated leaf segments are incubated at 19° C. and 75% rh under a light regime of 12 h light/12 h darkness in a climate cabinet and the activity of a compound is assessed as percent disease control compared to untreated when an appropriate level of disease damage appears in untreated check leaf segments (7-9 days after application).

[2] = system: Glomerella lagenarium (Colletotrichum lagenarium); experiment: Fungicidal activity against Glomerella lagenarium (Colletotrichum lagenarium), liquid culture, cucumber, preventative (anthracnose); format: cell-based; settings: Colletotrichum orbiculare, liquid culture (PDB), growth inhibition measured photometrically 3-4 days after application, compared to untreated control
Method: Mycelia fragments or conidia suspensions of a fungus, prepared either freshly from liquid cultures of the fungus or from cryogenic storage, are directly mixed into nutrient broth. DMSO solutions of the test compound (max. 10 mg/ml) is diluted with 0.025% Tween20 by a factor of 50 and 10 μl of this solution is pipetted into a microtiter plate (96-well format). The nutrient broth containing the fungal spores/mycelia fragments is then added to give an end concentration of the tested compound. The test plates are incubated in the dark at 24° C. and 96% relative humidity. The inhibition of fungal growth is determined photometrically after 2 to 7 days, depending on the pathosystem, and percent antifungal activity relative to the untreated check is calculated. Conidia of the fungus from cryogenic storage are directly mixed into nutrient broth (PDB potato dextrose broth). After placing a (DMSO) solution of test compound into a microtiter plate (96-well format), the nutrient broth containing the fungal spores is added. The test plates are incubated at 24° C. and the inhibition of growth is measured photometrically 3-4 days after application.

[3] = system: Puccinia recondita f. sp. tritici; experiment: Fungicidal activity against Puccinia recondita f. sp. tritici, wheat, leaf disc curative (brown rust); format: in vivo; settings: foliar, 144 h, wheat leaf segments, curative (applied 1 day after inoculation), 6-8 days after application, compared to untreated control
Method: as §1, with “plates (24-well format). The leaf” for “plates (24-well format) and sprayed with the formulated test compound diluted in water. The leaf”, “of the fungus. Plates are stored in darkness at 19° C. and 75% rh. The formulated test compound diluted in water is applied 1 day” for “of the fungus 1 day”, “day after inoculation. The leaf” for “day after application. The inoculated”, “inoculation. The leaf segments” for “application. The inoculated leaf segments”, “leaf segments (6-8 days after” for “leaf segments (7-9 days after”

O=C1CC(C(F)(F)F)N1Cc1ccc(-c2noc(C(F)(F)F)n2)cc1 (centres unmarked) [Compound A-20, 4-(trifluoromethyl)-1-[[4-[5-(trifluoromethyl)-1,2,4-oxadiazol-3-yl]phenyl]methyl]azetidin-2-one]
≥ 80%: pest or weed control at 200 ppm (Phakopsora pachyrhizi) | pest or weed control at 200 ppm [1] | inhibition of growth at 20 ppm [2] | pest or weed control at 200 ppm [3]

O=C1CCC(C(F)F)N1Cc1ccc(-c2noc(C(F)(F)F)n2)cc1 (centres unmarked) [Compound A-21, 5-(difluoromethyl)-1-[[4-[5-(trifluoromethyl)-1,2,4-oxadiazol-3-yl]phenyl]methyl]pyrrolidin-2-one]
≥ 80%: pest or weed control at 200 ppm (Phakopsora pachyrhizi) | pest or weed control at 200 ppm [1] | inhibition of growth at 20 ppm [2] | pest or weed control at 200 ppm [3]

O=C1CCN1Cc1ccc(-c2noc(C(F)(F)F)n2)cc1 [Compound A-23, 1-[[4-[5-(trifluoromethyl)-1,2,4-oxadiazol-3-yl]phenyl]methyl]azetidin-2-one]
≥ 80%: pest or weed control at 200 ppm (Phakopsora pachyrhizi) | pest or weed control at 200 ppm [1] | inhibition of growth at 20 ppm [2] | pest or weed control at 200 ppm [3]

O=C1C2CCC(C2)N1Cc1ccc(-c2noc(C(F)(F)F)n2)cc1 (centres unmarked) [Compound A-24, 3-[[4-[5-(trifluoromethyl)-1,2,4-oxadiazol-3-yl]phenyl]methyl]-3-azabicyclo[2.2.1]heptan-2-one]
≥ 80%: pest or weed control at 200 ppm (Phakopsora pachyrhizi) | pest or weed control at 200 ppm [1] | inhibition of growth at 20 ppm [2] | pest or weed control at 200 ppm [3]

O=C1CCCC2(CC2)N1Cc1ccc(-c2noc(C(F)(F)F)n2)cc1 [Compound A-25, 4-[[4-[5-(trifluoromethyl)-1,2,4-oxadiazol-3-yl]phenyl]methyl]-4-azaspiro[2.5]octan-5-one]
≥ 80%: pest or weed control at 200 ppm (Phakopsora pachyrhizi) | pest or weed control at 200 ppm [1] | inhibition of growth at 20 ppm [2] | pest or weed control at 200 ppm [3]

O=C1CCC2(CC2)N1Cc1ccc(-c2noc(C(F)(F)F)n2)cc1 [Compound A-27, 4-[[4-[5-(trifluoromethyl)-1,2,4-oxadiazol-3-yl]phenyl]methyl]-4-aza-spiro[2.4]heptan-5-one]
≥ 80%: pest or weed control at 200 ppm (Phakopsora pachyrhizi) | pest or weed control at 200 ppm [1] | inhibition of growth at 20 ppm [2] | pest or weed control at 200 ppm [3]

O=C1CCCCN1Cc1ccc(-c2noc(C(F)(F)F)n2)cc1F [Compound A-29, 1-[[2-fluoro-4-[5-(trifluoromethyl)-1,2,4-oxadiazol-3-yl]phenyl]methyl]piperidin-2-one]
≥ 80%: pest or weed control at 200 ppm (Phakopsora pachyrhizi) | pest or weed control at 200 ppm [1] | inhibition of growth at 20 ppm [2] | pest or weed control at 200 ppm [3]

CCOC(=O)N1CCN(Cc2ccc(-c3noc(C(F)(F)F)n3)cc2)C(=O)C1 [Compound A-32, ethyl 3-oxo-4-[[4-[5-(trifluoromethyl)-1,2,4-oxadiazol-3-yl]phenyl]methyl]piperazine-1-carboxylate]
≥ 80%: pest or weed control at 200 ppm (Phakopsora pachyrhizi) | pest or weed control at 200 ppm [1] | inhibition of growth at 20 ppm [2] | pest or weed control at 200 ppm [3]

CC(=O)N1CCN(Cc2ccc(-c3noc(C(F)(F)F)n3)cc2)C(=O)C1 [Compound A-35, 4-acetyl-1-[[4-[5-(trifluoromethyl)-1,2,4-oxadiazol-3-yl]phenyl]methyl]piperazin-2-one]
≥ 80%: pest or weed control at 200 ppm (Phakopsora pachyrhizi) | pest or weed control at 200 ppm [1] | inhibition of growth at 20 ppm [2] | pest or weed control at 200 ppm [3]

O=C1CCCON1Cc1ccc(-c2noc(C(F)(F)F)n2)cc1 [Compound A-37, 2-[[4-[5-(trifluoromethyl)-1,2,4-oxadiazol-3-yl]phenyl]methyl]oxazinan-3-one]
≥ 80%: pest or weed control at 200 ppm (Phakopsora pachyrhizi) | pest or weed control at 200 ppm [1] | inhibition of growth at 20 ppm [2] | pest or weed control at 200 ppm [3]

CON(C)C(=O)N1CCN(Cc2ccc(-c3noc(C(F)(F)F)n3)cc2)C(=O)C1 [Compound A-39, N-methoxy-N-methyl-3-oxo-4-[[4-[5-(trifluoromethyl)-1,2,4-oxadiazol-3-yl]phenyl]methyl]piperazine-1-carboxamide]
≥ 80%: pest or weed control at 200 ppm (Phakopsora pachyrhizi) | pest or weed control at 200 ppm [1] | inhibition of growth at 20 ppm [2] | pest or weed control at 200 ppm [3]

O=C1CN(C(=O)C2CC2)CCN1Cc1ccc(-c2noc(C(F)(F)F)n2)cc1 [Compound A-40, 4-(cyclopropane-carbonyl)-1-[[4-[5-(trifluoromethyl)-1,2,4-oxadiazol-3-yl]phenyl]methyl]piperazin-2-one]
≥ 80%: pest or weed control at 200 ppm (Phakopsora pachyrhizi) | pest or weed control at 200 ppm [1] | inhibition of growth at 20 ppm [2] | pest or weed control at 200 ppm [3]

CN(C)S(=O)(=O)N1CCN(Cc2ccc(-c3noc(C(F)(F)F)n3)cc2)C(=O)C1 [Compound A-42, N,N-dimethyl-3-oxo-4-[[4-[5-(trifluoromethyl)-1,2,4-oxadiazol-3-yl]phenyl]methyl]piperazine-1-sulfonamide]
≥ 80%: pest or weed control at 200 ppm (Phakopsora pachyrhizi) | pest or weed control at 200 ppm [1] | inhibition of growth at 20 ppm [2] | pest or weed control at 200 ppm [3]

CNS(=O)(=O)N1CCN(Cc2ccc(-c3noc(C(F)(F)F)n3)cc2)C(=O)C1 [Compound A-43, N-methyl-3-oxo-4-[[4-[5-(trifluoromethyl)-1,2,4-oxadiazol-3-yl]phenyl]methyl]piperazine-1-sulfonamide]
≥ 80%: pest or weed control at 200 ppm (Phakopsora pachyrhizi) | pest or weed control at 200 ppm [1] | inhibition of growth at 20 ppm [2] | pest or weed control at 200 ppm [3]

CN1CCN(Cc2ccc(-c3noc(C(F)(F)F)n3)cc2)C1=O [Compound A-46, 1-methyl-3-[[4-[5-(trifluoromethyl)-1,2,4-oxadiazol-3-yl]phenyl]methyl]imidazolidin-2-one]
≥ 80%: pest or weed control at 200 ppm (Phakopsora pachyrhizi) | pest or weed control at 200 ppm [1] | inhibition of growth at 20 ppm [2] | pest or weed control at 200 ppm [3]

CN1C(=O)CN(Cc2ccc(-c3noc(C(F)(F)F)n3)cc2)C1=O [Compound A-47, 3-methyl-1-[[4-[5-(trifluoromethyl)-1,2,4-oxadiazol-3-yl]phenyl]methyl]imidazolidine-2,4-dione]
≥ 80%: pest or weed control at 200 ppm (Phakopsora pachyrhizi) | pest or weed control at 200 ppm [1] | inhibition of growth at 20 ppm [2] | pest or weed control at 200 ppm [3]

CN1CCCN(Cc2ccc(-c3noc(C(F)(F)F)n3)cc2)C1=O [Compound A-48, 1-methyl-3-[[4-[5-(trifluoromethyl)-1,2,4-oxadiazol-3-yl]phenyl]methyl]hexahydro-pyrimidin-2-one]
≥ 80%: pest or weed control at 200 ppm (Phakopsora pachyrhizi) | pest or weed control at 200 ppm [1] | inhibition of growth at 20 ppm [2] | pest or weed control at 200 ppm [3]
